Data reported in patent publication US10626144B2, “Peptide derivatives and uses thereof” (Nosopharm, priority 2014, dated 2020).
Square brackets hold non-standard residues; d marks the D form. Peptide text beside a SMILES is read from it. Phe(3,4-(OMe)2) = COc1ccc(C[C@H](N)C(=O)O)cc1OC; Abu(4,4,4-F3) = N[C@@H](CC(F)(F)F)C(=O)O; Phe(4-CN) = N#Cc1ccc(C[C@H](N)C(=O)O)cc1; Phe(3-Me) = Cc1cccc(C[C@H](N)C(=O)O)c1; Dab(3S-OH) = NC[C@H](O)[C@H](N)C(=O)O; Phe(2-F) = N[C@@H](Cc1ccccc1F)C(=O)O; Gly(cPent) = N[C@H](C(=O)O)C1CCCC1; ΔZArg = N=C(N)NCC/C=C(\N)C(=O)O; Gly(cPr) = N[C@H](C(=O)O)C1CC1; Lys(Me) = CNCCCC[C@H](N)C(=O)O; AllylGly = C=CC[C@H](N)C(=O)O; dOrn = NCCC[C@@H](N)C(=O)O; Orn = NCCC[C@H](N)C(=O)O; Dap = NC[C@H](N)C(=O)O

Columns and labels:
Assay in all cases: MIC, broth microdilution (CLSI), reference strain
Conditions in all cases: CAMHB
[1] = tested on: Escherichia coli ATCC 25922
[2] = tested on: Pseudomonas aeruginosa ATCC 27853
[3] = tested on: Acinetobacter baumannii ATCC 19606
[4] = tested on: Staphylococcus aureus ATCC 13709

| Ec: MIC Escherichia coli ATCC 25922 [1] | Pa: MIC Pseudomonas aeruginosa ATCC 27853 [2] | Ab: MIC Acinetobacter baumannii ATCC 19606 [3] | Sa: MIC Staphylococcus aureus ATCC 13709 [4] | Compound |
| --- | --- | --- | --- | --- |
| − (>32 μg/mL) | − (>32 μg/mL) | − (>32 μg/mL) | + (≤32 μg/mL) | C=CC[C@H](NC(=O)[C@@H](NC(=O)[C@@H](N)CCCCN)[C@@H](O)CN)C(=O)NCC(=O)N[C@H](CCCN)C(=O)N1CCC[C@H]1C(=O)N[C@@H](Cc1cnc[nH]1)C(=O)N[C@@H](CCCCN)C(=O)N/C(=C\CCNC(=N)N)C(=O)O [216.1] (H-K[Dab(3S-OH)][AllylGly]G[dOrn]PHK[ΔZArg]-OH) |
| ++ (≤8 μg/mL) | − (>32 μg/mL) | − (>32 μg/mL) | ++ (≤8 μg/mL) | N=C(N)NCC/C=C(\NC(=O)[C@H](CCCCN)NC(=O)[C@H](Cc1cnc[nH]1)NC(=O)[C@@H]1CCCN1C(=O)[C@@H](CCCN)NC(=O)CNC(=O)[C@H](CCCNC(=N)N)NC(=O)[C@@H](NC(=O)[C@@H](N)CCCCN)[C@@H](O)CN)C(N)=O [217.1] (H-K[Dab(3S-OH)]RG[dOrn]PHK[ΔZArg]-NH2) |
| + (≤32 μg/mL) | − (>32 μg/mL) | − (>32 μg/mL) | ++ (≤8 μg/mL) | N=C(N)NCC/C=C(\NC(=O)[C@H](CCCCN)NC(=O)[C@H](Cc1cnc[nH]1)NC(=O)[C@@H]1CCCN1C(=O)[C@@H](CCCN)NC(=O)CNC(=O)[C@@H](NC(=O)[C@@H](NC(=O)[C@@H](N)CCCCN)[C@@H](O)CN)C1CCCC1)C(N)=O [220.1] (H-K[Dab(3S-OH)][Gly(cPent)]G[dOrn]PHK[ΔZArg]-NH2) |
| − (>32 μg/mL) | − (>32 μg/mL) | − (>32 μg/mL) | + (≤32 μg/mL) | N=C(N)NCC/C=C(\NC(=O)[C@H](CCCCN)NC(=O)[C@H](Cc1cnc[nH]1)NC(=O)[C@@H]1CCCN1C(=O)[C@@H](CCCN)NC(=O)CNC(=O)[C@H](CN)NC(=O)[C@@H](NC(=O)[C@@H](N)CCCCN)[C@@H](O)CN)C(=O)O [221.1] (H-K[Dab(3S-OH)][Dap]G[dOrn]PHK[ΔZArg]-OH) |
| − (>32 μg/mL) | − (>32 μg/mL) | − (>32 μg/mL) | + (≤32 μg/mL) | N=C(N)NCC/C=C(\NC(=O)[C@H](CCCCN)NC(=O)[C@H](Cc1cnc[nH]1)NC(=O)[C@@H]1CCCN1C(=O)[C@@H](CCCN)NC(=O)CNC(=O)[C@H](CCC(N)=O)NC(=O)[C@@H](NC(=O)[C@@H](N)CCCCN)[C@@H](O)CN)C(N)=O [222.1] (H-K[Dab(3S-OH)]QG[dOrn]PHK[ΔZArg]-NH2) |

Second part, the molecule before the results:

| Compound | Ec: MIC Escherichia coli ATCC 25922 [1] | Pa: MIC Pseudomonas aeruginosa ATCC 27853 [2] | Ab: MIC Acinetobacter baumannii ATCC 19606 [3] | Sa: MIC Staphylococcus aureus ATCC 13709 [4] |
| --- | --- | --- | --- | --- |
| Cc1cccc(C[C@H](NC(=O)[C@@H]2CCCN2C(=O)[C@@H](CCCN)NC(=O)CNC(=O)[C@H](CCCN)NC(=O)[C@@H](NC(=O)[C@@H](N)CCCCN)[C@@H](O)CN)C(=O)N[C@@H](CCCCN)C(=O)N/C(=C\CCNC(=N)N)C(=O)O)c1 [211.5] (H-K[Dab(3S-OH)][Orn]G[dOrn]P[Phe(3-Me)]K[ΔZArg]-OH) | ++ (≤8 μg/mL) | − (>32 μg/mL) | − (>32 μg/mL) | ++ (≤8 μg/mL) |
| N#Cc1ccc(C[C@H](NC(=O)[C@@H]2CCCN2C(=O)[C@@H](CCCN)NC(=O)CNC(=O)[C@H](CCCN)NC(=O)[C@@H](NC(=O)[C@@H](N)CCCCN)[C@@H](O)CN)C(=O)N[C@@H](CCCCN)C(=O)N/C(=C\CCNC(=N)N)C(=O)O)cc1 [211.6] (H-K[Dab(3S-OH)][Orn]G[dOrn]P[Phe(4-CN)]K[ΔZArg]-OH) | ++ (≤8 μg/mL) | − (>32 μg/mL) | − (>32 μg/mL) | ++ (≤8 μg/mL) |
| COc1ccc(C[C@H](NC(=O)[C@@H]2CCCN2C(=O)[C@@H](CCCN)NC(=O)CNC(=O)[C@H](CCCN)NC(=O)[C@@H](NC(=O)[C@@H](N)CCCCN)[C@@H](O)CN)C(=O)N[C@@H](CCCCN)C(=O)N/C(=C\CCNC(=N)N)C(=O)O)cc1 [211.7] (H-K[Dab(3S-OH)][Orn]G[dOrn]PY(Me)K[ΔZArg]-OH) | ++ (≤8 μg/mL) | − (>32 μg/mL) | − (>32 μg/mL) | ++ (≤8 μg/mL) |
| N=C(N)NCC/C=C(\NC(=O)[C@H](CCCCN)NC(=O)[C@H](CC(F)(F)F)NC(=O)[C@@H]1CCCN1C(=O)[C@@H](CCCN)NC(=O)CNC(=O)[C@H](CCCN)NC(=O)[C@@H](NC(=O)[C@@H](N)CCCCN)[C@@H](O)CN)C(=O)O [211.8] (H-K[Dab(3S-OH)][Orn]G[dOrn]P[Abu(4,4,4-F3)]K[ΔZArg]-OH) | ++ (≤8 μg/mL) | − (>32 μg/mL) | − (>32 μg/mL) | ++ (≤8 μg/mL) |
| N=C(N)NCC/C=C(\NC(=O)[C@H](CCCCN)NC(=O)[C@H](Cc1ccccc1F)NC(=O)[C@@H]1CCCN1C(=O)[C@@H](CCCN)NC(=O)CNC(=O)[C@H](CCCN)NC(=O)[C@@H](NC(=O)[C@@H](N)CCCCN)[C@@H](O)CN)C(=O)O [211.9] (H-K[Dab(3S-OH)][Orn]G[dOrn]P[Phe(2-F)]K[ΔZArg]-OH) | ++ (≤8 μg/mL) | − (>32 μg/mL) | − (>32 μg/mL) | ++ (≤8 μg/mL) |
| COc1ccc(C[C@H](NC(=O)[C@@H]2CCCN2C(=O)[C@@H](CCCN)NC(=O)CNC(=O)[C@H](CCCN)NC(=O)[C@@H](NC(=O)[C@@H](N)CCCCN)[C@@H](O)CN)C(=O)N[C@@H](CCCCN)C(=O)N/C(=C\CCNC(=N)N)C(=O)O)cc1OC [211.10] (H-K[Dab(3S-OH)][Orn]G[dOrn]P[Phe(3,4-(OMe)2)]K[ΔZArg]-OH) | ++ (≤8 μg/mL) | − (>32 μg/mL) | − (>32 μg/mL) | ++ (≤8 μg/mL) |
| N=C(N)NCC/C=C(\NC(=O)[C@H](CCCCN)NC(=O)[C@H](Cc1c[nH]c2ccccc12)NC(=O)[C@@H]1CCCN1C(=O)[C@@H](CCCN)NC(=O)CNC(=O)[C@H](CCCN)NC(=O)[C@@H](NC(=O)[C@@H](N)CCCCN)[C@@H](O)CN)C(=O)O [211.11] (H-K[Dab(3S-OH)][Orn]G[dOrn]PWK[ΔZArg]-OH) | ++ (≤8 μg/mL) | − (>32 μg/mL) | − (>32 μg/mL) | ++ (≤8 μg/mL) |
| N=C(N)NCC/C=C(\NC(=O)[C@H](CCCCN)NC(=O)[C@H](Cc1cnc[nH]1)NC(=O)[C@@H]1CCCN1C(=O)[C@@H](CCCN)NC(=O)CNC(=O)[C@@H](NC(=O)[C@@H](NC(=O)[C@@H](N)CCCCN)[C@@H](O)CN)C1CC1)C(N)=O [213.1] (H-K[Dab(3S-OH)][Gly(cPr)]G[dOrn]PHK[ΔZArg]-NH2) | + (≤32 μg/mL) | − (>32 μg/mL) | − (>32 μg/mL) | ++ (≤8 μg/mL) |
| N=C(N)NCC/C=C(\NC(=O)[C@H](CCCCN)NC(=O)[C@H](Cc1cnc[nH]1)NC(=O)[C@@H]1CCCN1C(=O)[C@@H](CCCN)NC(=O)CNC(=O)[C@@H](NC(=O)[C@@H](NC(=O)[C@@H](N)CCCCN)[C@@H](O)CN)C1CC1)C(=O)O [213.2] (H-K[Dab(3S-OH)][Gly(cPr)]G[dOrn]PHK[ΔZArg]-OH) | + (≤32 μg/mL) | − (>32 μg/mL) | − (>32 μg/mL) | + (≤32 μg/mL) |
| N=C(N)NCC/C=C(\NC(=O)[C@H](CCCCN)NC(=O)[C@H](Cc1cnc[nH]1)NC(=O)[C@@H]1CCCN1C(=O)[C@@H](CCCN)NC(=O)CNC(=O)[C@H](Cc1cnc[nH]1)NC(=O)[C@@H](NC(=O)[C@@H](N)CCCCN)[C@@H](O)CN)C(N)=O [214.1] (H-K[Dab(3S-OH)]HG[dOrn]PHK[ΔZArg]-NH2) | + (≤32 μg/mL) | − (>32 μg/mL) | − (>32 μg/mL) | ++ (≤8 μg/mL) |
| N=C(N)NCC/C=C(\NC(=O)[C@H](CCCCN)NC(=O)[C@H](Cc1cnc[nH]1)NC(=O)[C@@H]1CCCN1C(=O)[C@@H](CCCN)NC(=O)CNC(=O)[C@H](Cc1cnc[nH]1)NC(=O)[C@@H](NC(=O)[C@@H](N)CCCCN)[C@@H](O)CN)C(=O)O [214.2] (H-K[Dab(3S-OH)]HG[dOrn]PHK[ΔZArg]-OH) | − (>32 μg/mL) | − (>32 μg/mL) | − (>32 μg/mL) | + (≤32 μg/mL) |
| N=C(N)NCC/C=C(\NC(=O)[C@H](CCCCN)NC(=O)[C@H](Cc1cnc[nH]1)NC(=O)[C@@H]1CCCN1C(=O)[C@@H](CCCN)NC(=O)CNC(=O)[C@H](CCCCN)NC(=O)[C@@H](NC(=O)[C@@H](N)CCCCN)[C@@H](O)CN)C(=O)O [215.1] (H-K[Dab(3S-OH)]KG[dOrn]PHK[ΔZArg]-OH) | + (≤32 μg/mL) | − (>32 μg/mL) | − (>32 μg/mL) | ++ (≤8 μg/mL) |
| CNCCCC[C@H](NC(=O)[C@@H](NC(=O)[C@@H](N)CCCCN)[C@@H](O)CN)C(=O)NCC(=O)N[C@H](CCCN)C(=O)N1CCC[C@H]1C(=O)N[C@@H](Cc1cnc[nH]1)C(=O)N[C@@H](CCCCN)C(=O)N/C(=C\CCNC(=N)N)C(N)=O [215.2] (H-K[Dab(3S-OH)][Lys(Me)]G[dOrn]PHK[ΔZArg]-NH2) | ++ (≤8 μg/mL) | − (>32 μg/mL) | − (>32 μg/mL) | ++ (≤8 μg/mL) |
